Assay results published in PMC3483018 (Journal of Medicinal Chemistry, 2012).
Where two headings read alike, the source gives them in different places.

Tests used:
[1] = assay type: in vitro ADME; settings: mouse liver microsomes, 10 μM
[2] = assay type: in vitro ADME; settings: human liver microsomes, 10 μM
hERG = hERG (Homo sapiens, UniProt Q12809); experiment: in vitro
Caco-2 assay = assay type: in vitro ADME
In vivo rat PK = settings: female, Sprague-Dawley, plasma, iv, 5 mg/kg
[3] = system: histone H-3 phosphorylation at S10; experiment: PK/PD study, tumor biomarker; assay type: in vivo, mouse; settings: 50 and 100 mg/kg po b.i.d. 4 days, 2 h after the final dose
[4] = system: Stat5 phosphorylation at Y694; experiment: PK/PD study, tumor biomarker; assay type: in vivo, mouse; settings: 50 and 100 mg/kg po b.i.d. 4 days, 2 h after the final dose
[5] = system: MV4–11 human FLT3-ITD positive AML tumor xenografts; settings: for days on which individual mice were culled (tumor volume increased by over 500%): control culled day 18
pKa measurement = assay type: physicochemical
[6] = system: SW620 human colon cancer cell; settings: read-out: SW620 GI50; cited from earlier work

Sequence of hERG (Q12809 whole entry): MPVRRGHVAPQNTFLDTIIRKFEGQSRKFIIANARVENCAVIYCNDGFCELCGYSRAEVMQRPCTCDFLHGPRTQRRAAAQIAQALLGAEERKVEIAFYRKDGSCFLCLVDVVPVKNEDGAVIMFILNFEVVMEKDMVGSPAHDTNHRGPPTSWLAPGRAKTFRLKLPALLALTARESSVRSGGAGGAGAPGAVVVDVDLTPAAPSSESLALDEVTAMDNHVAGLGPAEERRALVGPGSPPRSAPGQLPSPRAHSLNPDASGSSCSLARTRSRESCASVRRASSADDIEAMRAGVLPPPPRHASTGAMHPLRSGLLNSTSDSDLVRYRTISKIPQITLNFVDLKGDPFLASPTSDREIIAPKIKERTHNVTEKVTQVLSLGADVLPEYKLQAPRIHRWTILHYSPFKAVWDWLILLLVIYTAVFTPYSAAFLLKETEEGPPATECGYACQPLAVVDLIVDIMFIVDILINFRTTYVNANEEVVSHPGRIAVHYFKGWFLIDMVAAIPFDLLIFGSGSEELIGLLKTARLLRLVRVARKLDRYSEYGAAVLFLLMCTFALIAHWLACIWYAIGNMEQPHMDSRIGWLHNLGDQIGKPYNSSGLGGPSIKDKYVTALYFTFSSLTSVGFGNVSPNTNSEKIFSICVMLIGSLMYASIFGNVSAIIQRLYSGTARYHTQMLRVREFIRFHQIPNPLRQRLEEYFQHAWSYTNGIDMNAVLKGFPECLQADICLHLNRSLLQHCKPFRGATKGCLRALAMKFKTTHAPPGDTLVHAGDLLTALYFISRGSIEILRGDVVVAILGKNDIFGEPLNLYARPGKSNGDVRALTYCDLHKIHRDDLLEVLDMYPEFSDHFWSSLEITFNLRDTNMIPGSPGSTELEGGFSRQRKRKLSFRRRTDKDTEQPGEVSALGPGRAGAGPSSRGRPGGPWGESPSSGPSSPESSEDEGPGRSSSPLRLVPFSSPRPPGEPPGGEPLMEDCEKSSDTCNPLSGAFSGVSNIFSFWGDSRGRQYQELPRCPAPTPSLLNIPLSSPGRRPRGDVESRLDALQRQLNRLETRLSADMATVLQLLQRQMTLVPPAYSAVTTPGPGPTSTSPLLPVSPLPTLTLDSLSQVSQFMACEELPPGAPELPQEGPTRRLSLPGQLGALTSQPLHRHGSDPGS

With `Cc1cc(CN2CCN(c3c(Cl)cnc4nc(-c5cnn(C)c5)[nH]c34)CC2)no1` [Compound 21i, 3-((4-(6-Chloro-2-(1-methyl-1H-pyrazol-4-yl)-3H-imidazo[4,5-b]pyridin-7-yl)piperazin-1-yl)methyl)-5-methylisoxazole] the “MLM: Percentage of parent compound metabolized after a 30 min incubation” value [1] was 20%, the “HLM: Percentage of parent compound metabolized after a 30 min incubation” value [2] was 10% and the inhibition at 10 µM (hERG) was 67%.
In the case of `Cc1nn(C)cc1-c1nc2c(N3CCN(Cc4ccc(Cl)cc4)CC3)c(Cl)cnc2[nH]1` [Compound 27e, 6-Chloro-7-(4-(4-chlorobenzyl)piperazin-1-yl)-2-(1,3-dimethyl-1H-pyrazol-4-yl)-3H-imidazo[4,5-b]pyridine], the Caco-2 efflux (Caco-2 assay) is reported as “no efflux”, the Vd (In vivo rat PK) is reported as 0.369 L and the “inhibition of histone H-3 phosphorylation in tumor” value [3] is reported as “clear inhibition”. The “inhibition of Stat5 phosphorylation in tumor” value [4] was “clear inhibition”, the “days on which individual mice were culled (tumor volume increased by over 500%)” value ([5]; 50 mg/kg) was “days 28 and 31” and the “tumors when therapy discontinued” value ([5]; 100 mg/kg po b.i.d., after 11 days) was “undetectable”. For the same compound, the “days on which individual mice were culled (tumor volume increased by over 500%)” value ([5]; 100 mg/kg) was “days 46 and 56” and the “toxicity as defined by body weight loss and general condition” value ([5]; 50 and 100 mg/kg po) was “no observed toxicity”.
`COc1ccc(-c2nc3c(N4CCN(Cc5cc(C)on5)CC4)c(Br)cnc3[nH]2)cc1` [6-bromo-2-(4-methoxyphenyl)-7-[4-(5-methyl-isoxazol-3-ylmethyl)-piperazin-1-yl]-3H-imidazo[4,5-b]pyridine] gave a pKa (pKa measurement; acidic pKa of the imidazopyridine N3 proton) of 9.51 and a pKa (pKa measurement; pKa of the piperazine nitrogen bearing the 5-methylisoxazol-3-yl substituent) of 5.39.
Work on `Cc1cc(CN2CCN(c3c(Br)cnc4nc(-c5cncn5C)[nH]c34)CC2)no1` [Compound 21a, 3-((4-(6-Bromo-2-(1-methyl-1H-imidazol-5-yl)-3H-imidazo[4,5-b]pyridin-7-yl)piperazin-1-yl)methyl)-5-methylisoxazole] yielded an inhibition at 10 µM (hERG) of 94%.
For `Cc1cc(CN2CCN(c3c(Br)cnc4nc(-c5ccc(N6CCN(C)CC6)cc5)[nH]c34)CC2)no1` [Compound 6], the GI50 [6] is listed as 300 nM.
